target: T1, human ALK5 (Homo sapiens, UniProt P36897); assay: ALK5 Enzyme Assay 2 (fluorescence polarisation probe displacement); format: binding; parameters: 6His tagged human ALK5 (residues162-503) was grown and purified from insect cells; 6His; made in house; host or cells: insect cells; conditions: read-out: EAA2: activity (μM) using Enzyme Assay 2
T1 sequence (P36897 162-503): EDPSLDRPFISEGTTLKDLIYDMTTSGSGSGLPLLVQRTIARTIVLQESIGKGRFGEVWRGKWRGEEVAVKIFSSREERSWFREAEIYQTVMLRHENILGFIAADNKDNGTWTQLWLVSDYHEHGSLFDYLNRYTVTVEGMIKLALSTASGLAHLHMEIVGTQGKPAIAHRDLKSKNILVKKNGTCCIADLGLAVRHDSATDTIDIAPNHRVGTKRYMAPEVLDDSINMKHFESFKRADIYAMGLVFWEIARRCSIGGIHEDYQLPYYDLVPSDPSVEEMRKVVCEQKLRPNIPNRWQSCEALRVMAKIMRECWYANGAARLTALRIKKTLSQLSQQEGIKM
Experimental: The ability of a compound to bind and inhibit ALK5 can be measured by its capacity to displace a probe molecule from recombinant ALK5 in an in vitro assay. Provided the probe molecule is derivatised with a fluorescent probe or is fluorescent itself, the binding affinity can be measured using Fluorescence Polarisation (FP). […] Assay measurements were performed in 50 mM HEPES pH7.4, 10 mM MgCl2, 1 mM DTT, 0.01% CHAPS in a final assay volume of 12 μl. Briefly 6 μl of ALK5 protein, final concentration of 3 μg/mL, was added to each well of a 384 well assay plate containing 12 nL of each concentration of test compound dissolved in DMSO. 6 μL of a solution containing an ALK5 FP probe ((2Z)-3-(6-{4-[2-({4-[(6-chloro[1,3]dioxolo[4,5-b]pyridin-7-yl)amino]-5-(1-methylethoxy)quinazolin-7-yl}oxy)ethyl]piperazin-1-yl}-6-oxohexyl)-2-[(2E,4E)-5-(3-ethyl-1,1-dimethyl-6,8-disulfo-1H-benzo[e]indolium-2-yl)penta-2,4-dien-1-ylidene]-1,1-dimethyl-6-sulfo-2,3-dihydro-1H-benzo[e]indole-8-sulfonate), final concentration 50 nM, and ATP, final concentration 1 μM.

| Structure (SMILES) | IC50 [µM] |
| --- | --- |
| Cc1ccc(Oc2ccnc(Nc3ccccc3)c2)c(C(=O)NCc2ccc[nH]2)n1 [Example 94, 3-(2-Anilinopyridin-4-yl)oxy-6-methyl-N-(1H-pyrrol-2-ylmethyl)-pyridine-2-carboxamide] | 0.119 |
| Cc1ccc(Oc2ccnc(Nc3ccccc3)c2)c(C(=O)NCc2ccccc2)n1 [Example 96, 3-(2-Anilinopyridin-4-yl)oxy-N-benzyl-6-methylpyridine-2-carboxamide] | 0.292 |
| Cc1ccc(Oc2ccnc(Nc3ccc(S(=O)(=O)Nc4ccccn4)cc3)c2)c(C)n1 [Example 106, 4-[4-(2,6-Dimethylpyridin-3-yloxy)pyridin-2-ylamino]-N-(pyridin-2-yl)benzenesulfonamide] | 0.527 |
| CC(=O)NS(=O)(=O)c1ccc(Nc2cc(Oc3ccc(C)nc3C)ccn2)cc1 [Example 107, N-{4-[4-(2,6-Dimethylpyridin-3-yloxy)pyridin-2-ylamino]phenyl-sulfonyl}acetamide] | 0.592 |
| CNS(=O)(=O)c1ccc(Nc2cc(Oc3ccc(C)nc3C)ccn2)cc1 [Example 108, 4-{[4-(2,6-Dimethylpyridin-3-yl)oxypyridin-2-yl]amino}-N-methylbenzenesulfonamide] | 0.171 |
| COCCCNS(=O)(=O)c1ccc(Nc2cc(Oc3ccc(C)nc3C)ccn2)cc1 [Example 109, 4-{[4-(2,6-Dimethylpyridin-3-yl)oxypyridin-2-yl]amino}-N-(3-methoxypropyl)benzenesulfonamide] | 0.269 |
| COCCNS(=O)(=O)c1ccc(Nc2cc(Oc3ccc(C)nc3C)ccn2)cc1 [Example 110, 4-{[4-(2,6-Dimethylpyridin-3-yl)oxypyridin-2-yl]amino}-N-(2-methoxyethyl)benzenesulfonamide] | 0.203 |
| Cc1ccc(Oc2ccnc(Nc3cccc(S(=O)(=O)Nc4ccccc4)c3)c2)c(C)n1 [Example 111, 3-{[4-(2,6-Dimethylpyridin-3-yl)oxypyridin-2-yl]amino}-N-phenylbenzenesulfonamide] | 0.621 |
| Cc1ccc(Oc2ccnc(Nc3ccc(S(=O)(=O)N(C)CCO)cc3)c2)c(C)n1 [Example 112, 4-{[4-(2,6-Dimethylpyridin-3-yl)oxypyridin-2-yl]amino}-N-(2-hydroxyethyl)-N-methylbenzenesulfonamide] | 0.505 |
| Cc1ccc(Oc2ccnc(Nc3ccc(S(=O)(=O)NC4CCC4)cc3)c2)c(C)n1 [Example 113, N-Cyclobutyl-4-{[4-(2,6-dimethylpyridin-3-yl)oxypyridin-2-yl]-amino}benzenesulfonamide] | 0.288 |
| CCCCCNS(=O)(=O)c1ccc(Nc2cc(Oc3ccc(C)nc3C)ccn2)cc1 [Example 114, 4-{[4-(2,6-Dimethylpyridin-3-yl)oxypyridin-2-yl]amino}-N-pentylbenzenesulfonamide] | 3.01 |
| Cc1ccc(Oc2ccnc(Nc3ccc(S(=O)(=O)N4CCCCC4)cc3)c2)c(C)n1 [Example 115, 4-(2,6-Dimethylpyridin-3-yl)oxy-N-(4-piperidin-1-ylsulfonyl-phenyl)pyridin-2-amine] | 5.41 |
| CCN(CC)S(=O)(=O)c1ccc(Nc2cc(Oc3ccc(C)nc3C)ccn2)cc1 [Example 116, 4-{[4-(2,6-Dimethylpyridin-3-yl)oxypyridin-2-yl]amino}-N,N-diethylbenzenesulfonamide] | 1.42 |
| Cc1ccc(Oc2ccnc(Nc3ccc(S(=O)(=O)N(C)C)cc3)c2)c(C)n1 [Example 117, 4-{[4-(2,6-Dimethylpyridin-3-yl)oxypyridin-2-yl]amino}-N,N-dimethylbenzenesulfonamide] | 0.37 |
| COCC(C)NS(=O)(=O)c1ccc(Nc2cc(Oc3ccc(C)nc3C)ccn2)cc1 (stereo not shown) [Example 118, 4-{[4-(2,6-Dimethylpyridin-3-yl)oxypyridin-2-yl]amino}-N-(1-methoxypropan-2-yl)benzenesulfonamide] | 0.155 |
| CC(=O)N(C)c1ccc(Nc2cc(Oc3ccc(C)nc3C)ccn2)cc1 [Example 122, N-(4-{[4-(2,6-Dimethylpyridin-3-yl)oxypyridin-2-yl]amino}-phenyl)-N-methylacetamide] | 0.215 |
| Cc1ccc(Oc2ccnc(Nc3cccc(C#N)c3)c2)c(C)n1 [Example 125, 3-{[4-(2,6-Dimethylpyridin-3-yl)oxypyridin-2-yl]amino}-benzonitrile] | 0.192 |
| Cc1ccc(Oc2ccnc(Nc3ccc(OCC(O)CNC(C)C)cc3)c2)c(C)n1 (stereo not shown) [Example 129, 1-(4-{[4-(2,6-Dimethylpyridin-3-yl)oxypyridin-2-yl]amino}-phenoxy)-3-(propan-2-ylamino)propan-2-ol] | 0.103 |

These reach a lower IC50. Values come first.

| IC50 [µM] | Structure (SMILES) |
| --- | --- |
| 0.0209 | Cc1ccc(Oc2ccnc(Nc3ccccc3)c2)c(C(=O)NCCc2ccccc2)n1 [Example 95, 3-(2-Anilinopyridin-4-yl)oxy-6-methyl-N-phenethylpyridine-2-carboxamide] |
| 0.0513 | Cc1cc(Oc2ccnc(Nc3cccc(C(=O)N4CCC4)c3)c2)c(-c2ccccn2)nc1C [Example 98, Azetidin-1-yl-(3-{[4-(5,6-dimethyl-2-pyridin-2-ylpyridin-3-yl)-oxypyridin-2-yl]amino}phenyl)methanone] |
| 0.00734 | Cc1cc(Oc2ccnc(Nc3cccc(C(=O)NCc4ccccn4)c3)c2)c(-c2ccccn2)nc1C [Example 99, 3-{[4-(5,6-Dimethyl-2-pyridin-2-ylpyridin-3-yl)oxypyridin-2-yl]-amino}-N-(pyridin-2-ylmethyl)benzamide] |
| 0.00576 | Cc1cc(Oc2ccnc(Nc3cccc(C(=O)NCc4ccncc4)c3)c2)c(-c2ccccn2)nc1C [Example 100, 3-{[4-(5,6-Dimethyl-2-pyridin-2-ylpyridin-3-yl)oxypyridin-2-yl]-amino}-N-(pyridin-4-ylmethyl)benzamide] |
| 0.0114 | Cc1cc(Oc2ccnc(Nc3cccc(C(=O)N4CCCC(C)C4)c3)c2)c(-c2ccccn2)nc1C (stereo not shown) [Example 101, (3-{[4-(5,6-Dimethyl-2-pyridin-2-ylpyridin-3-yl)oxypyridin-2-yl]-amino}phenyl)-(3-methylpiperidin-1-yl)methanone] |
| 0.0113 | Cc1cc(Oc2ccnc(Nc3cccc(C(=O)N4CCCCCC4)c3)c2)c(-c2ccccn2)nc1C [Example 102, Azepan-1-yl-(3-{[4-(5,6-dimethyl-2-pyridin-2-ylpyridin-3-yl)-oxypyridin-2-yl]amino}phenyl)methanone] |
| 0.0375 | C#CC(C)(C)NC(=O)c1cccc(Nc2cc(Oc3cc(C)c(C)nc3-c3ccccn3)ccn2)c1 [Example 103, 3-{[4-(5,6-Dimethyl-2-pyridin-2-ylpyridin-3-yl)oxypyridin-2-yl]-amino}-N-(2-methylbut-3-yn-2-yl)benzamide] |
| 0.0121 | Cc1cc(Oc2ccnc(Nc3cccc(S(N)(=O)=O)c3)c2)c(-c2ccccn2)nc1C [Example 104, 3-{[4-(5,6-Dimethyl-2-pyridin-2-ylpyridin-3-yl)oxypyridin-2-yl]-amino}benzenesulfonamide] |
| 0.00764 | Cc1ccc(Oc2ccnc(Nc3cccc(S(N)(=O)=O)c3)c2)c(C)n1 [Example 105, 3-{[4-(2,6-Dimethylpyridin-3-yl)oxypyridin-2-yl]amino}benzene-sulfonamide] |
| 0.0319 | Cc1ccc(Oc2ccnc(Nc3cccc(S(=O)(=O)N4CCOCC4)c3)c2)c(C)n1 [Example 119, 4-(2,6-Dimethylpyridin-3-yl)oxy-N-(3-morpholin-4-ylsulfonyl-phenyl)pyridin-2-amine] |
| 0.088 | Cc1ccc(Oc2ccnc(Nc3ccc(C(=O)N(C)C)cc3)c2)c(C)n1 [Example 121, 4-{[4-(2,6-Dimethylpyridin-3-yl)oxypyridin-2-yl]amino}-N,N-dimethylbenzamide] |
| 0.0324 | CC(=O)Nc1ccc(Nc2cc(Oc3ccc(C)nc3C)ccn2)cc1 [Example 123, N-(4-{[4-(2,6-Dimethylpyridin-3-yl)oxypyridin-2-yl]amino}-phenyl)acetamide] |
| 0.077 | Cc1ccc(Oc2ccnc(Nc3ccc(S(C)(=O)=O)cc3)c2)c(C)n1 [Example 124, 4-(2,6-Dimethylpyridin-3-yl)oxy-N-(4-methylsulfonylphenyl)-pyridin-2-amine] |
| 0.0377 | Cc1ccc(Oc2ccnc(Nc3cccc(O)c3)c2)c(C)n1 [Example 126, 3-{[4-(2,6-Dimethylpyridin-3-yl)oxypyridin-2-yl]amino}phenol] |
| 0.0145 | CC(=O)Nc1cc(Nc2cc(Oc3ccc(C)nc3C)ccn2)ccc1C [Example 127, N-(5-{[4-(2,6-Dimethylpyridin-3-yl)oxypyridin-2-yl]amino}-2-methylphenyl)acetamide] |
| 0.0321 | Cc1ccc(Oc2ccnc(Nc3cccc(NS(C)(=O)=O)c3)c2)c(C)n1 [Example 128, N-(3-{[4-(2,6-Dimethylpyridin-3-yl)oxypyridin-2-yl]amino}-phenyl)methanesulfonamide] |

From patent US20090048269A1 (AstraZeneca AB, priority 2007, published 2009)
